# “Also recorded” adds a separate entry of the source.
# Experiments:
# [1] = system: Staphylococcus aureus RN4220; experiment: Phenotypic growth assay S. aureus; type: cell-based
# FabG [2] = molecular target: T1, FabG (Pseudomonas aeruginosa, UniProt O54438); experiment: Back Assay: FabG-catalyzed oxidation of 3-OH decanoyl-NAC, NADPH fluorescence; type: biochemical
# T1 sequence (O54438 1-247): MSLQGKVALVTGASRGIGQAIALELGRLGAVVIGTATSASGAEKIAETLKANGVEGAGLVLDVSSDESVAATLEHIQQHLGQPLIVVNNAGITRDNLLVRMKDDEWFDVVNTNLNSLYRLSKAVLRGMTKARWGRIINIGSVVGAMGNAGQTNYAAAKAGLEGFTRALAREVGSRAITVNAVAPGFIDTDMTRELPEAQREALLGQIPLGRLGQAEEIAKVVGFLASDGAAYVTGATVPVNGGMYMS
# FabG [3] = molecular target: T1, FabG; experiment: Forward Assay: FabG-catalyzed reduction of AcAcCoA, NADPH consumption at 340 nm
# [4] = Lineweaver–Burk plot, 0-200 nM FG01
compound,measurement,setting,value
"COc1ccccc1Nc1cccc2nccnc12 [FG48, N-(2-methoxyphenyl)quinoxalin-5-amine]",effect on growth of S. aureus,[1]; concentration/effect curve,completely inhibited the growth
3-hydroxydecanoyl-N-acetylcysteamine [3-OH decanoyl-NAC],Km,"FabG [2]; 3-OH decanoyl-NAC, not determinable, response linear at least to 0.3 mM",> 300 µM
NC(=O)c1ccc[n+]([C@@H]2O[C@H](COP(=O)([O-])OP(=O)(O)OC[C@H]3O[C@@H](n4cnc5c(N)ncnc54)[C@H](OP(=O)(O)O)[C@@H]3O)[C@@H](O)[C@H]2O)c1 [NADP^+],Km,"FabG [2]; NADP+, in the presence of 0.3 mM 3-OH decanoyl-NAC",290 µM
"c1ccc(-c2nc(-n3cnnc3)c3ccccc3n2)cc1 [FG01, 2-phenyl-4-(1,2,4-triazol-4-yl)quinazoline]",mode of inhibition with respect to AcAcCoA,FabG [3]; [4],mixed inhibition pattern
same,mode of inhibition with respect to NADPH,FabG [3]; [4],noncompetitive mode of inhibition; also recorded: noncompetitive inhibition pattern
"NC(=O)C1=CN([C@@H]2O[C@H](COP(=O)(O)OP(=O)(O)OC[C@H]3O[C@@H](n4cnc5c(N)ncnc54)[C@H](OP(=O)(O)O)[C@@H]3O)[C@@H](O)[C@H]2O)C=CC1 [NADPH, reference compound]",Km,"FabG [3]; NADPH, in the presence of 4 mM AcAcCoA",290 ± 30 µM
"Cn1ncc2c(NCCO)nc(Nc3ccc(F)c(F)c3)nc21 [FG39, 2-[[6-(3,4-difluoroanilino)-1-methylpyrazolo[3,4-d]pyrimidin-4-yl]amino]ethanol]",inhibition of cell growth,"[1]; S. aureus, 100 μM",35%

# Source: paper PMC3833349 (ACS Chemical Biology, 2013)
